Reference: patent publication US11116760B2 (Gilead Sciences, Inc., priority 2018, dated 2021)

Biological target: α4β7 integrin (Homo sapiens (Human), UniProt P13612+P26010)
Test: α4β7 Integrin Cell Capture Assay
Format: cell-based
Description: α4β7 Integrin Cell Capture Assay
The potency of inhibitors in preventing α4β7 integrin interaction with MadCAM-1 was measured by monitoring the capture of α4β7 integrin expressing cells on a recombinant MadCAM-1 extracellular domain-coated plate. […] The plates were then washed with PBS and blocked with 3% BSA for 2 hours before being washed again.
RPM18866 cells were spun down and re-suspended in assay medium (DMEM+0.5% FBS+0.5 mM MnCl2) at a density of 0.5×10^6 cells/mL. […] The plates were incubated at 37° C. for 1 hour. 50 μL of cells were transferred to the blocked, MadCAM-1-coated plates and incubated for 30 minutes at 37° C. […] The plates were incubated for 90 minutes at room temperature. The plates were then washed 3 times with 70 μL of PBS per well and imaged on a Cellomics ArrayScan instrument. The cells that were bound to the plate were counted and plotted against the compound concentration to determine the EC50 of the test compounds.

[1] = Table 1, capture of α4β7 expressing RPM18866 cells on MadCAM-1 extracellular domain-coated plate
[2] = Table 2, capture of α4β7 expressing RPM18866 cells on MadCAM-1 extracellular domain-coated plate
[3] = RPMI8866 cells captured on MadCAM-1 extracellular domain-coated plate

α4β7 integrin, sequence (P13612 34-1032): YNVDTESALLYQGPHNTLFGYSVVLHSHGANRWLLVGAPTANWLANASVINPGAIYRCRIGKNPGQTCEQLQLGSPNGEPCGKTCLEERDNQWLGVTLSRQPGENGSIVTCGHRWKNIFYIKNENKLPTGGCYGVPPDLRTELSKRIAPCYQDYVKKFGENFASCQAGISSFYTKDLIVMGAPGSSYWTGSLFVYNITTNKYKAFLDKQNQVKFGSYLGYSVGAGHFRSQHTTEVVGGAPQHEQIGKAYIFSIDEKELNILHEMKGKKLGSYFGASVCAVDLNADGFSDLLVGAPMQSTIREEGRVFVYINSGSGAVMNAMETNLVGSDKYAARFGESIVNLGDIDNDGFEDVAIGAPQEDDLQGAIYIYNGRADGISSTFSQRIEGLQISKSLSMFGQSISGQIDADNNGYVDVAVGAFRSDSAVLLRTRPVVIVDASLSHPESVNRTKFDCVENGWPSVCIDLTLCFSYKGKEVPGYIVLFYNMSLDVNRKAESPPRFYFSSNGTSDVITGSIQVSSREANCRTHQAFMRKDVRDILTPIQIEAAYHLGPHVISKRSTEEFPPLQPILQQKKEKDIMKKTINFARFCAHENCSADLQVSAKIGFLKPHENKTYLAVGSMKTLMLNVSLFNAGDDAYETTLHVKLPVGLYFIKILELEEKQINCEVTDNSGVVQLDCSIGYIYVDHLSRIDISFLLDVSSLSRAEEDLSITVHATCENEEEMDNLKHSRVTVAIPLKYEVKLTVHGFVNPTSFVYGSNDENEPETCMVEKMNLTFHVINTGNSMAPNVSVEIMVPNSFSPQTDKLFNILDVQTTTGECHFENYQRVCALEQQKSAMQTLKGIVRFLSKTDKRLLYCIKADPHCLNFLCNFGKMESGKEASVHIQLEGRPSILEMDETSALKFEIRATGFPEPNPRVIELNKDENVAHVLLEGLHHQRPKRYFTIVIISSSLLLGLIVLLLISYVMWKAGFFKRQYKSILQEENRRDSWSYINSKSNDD
α4β7 integrin, sequence (P26010 20-798): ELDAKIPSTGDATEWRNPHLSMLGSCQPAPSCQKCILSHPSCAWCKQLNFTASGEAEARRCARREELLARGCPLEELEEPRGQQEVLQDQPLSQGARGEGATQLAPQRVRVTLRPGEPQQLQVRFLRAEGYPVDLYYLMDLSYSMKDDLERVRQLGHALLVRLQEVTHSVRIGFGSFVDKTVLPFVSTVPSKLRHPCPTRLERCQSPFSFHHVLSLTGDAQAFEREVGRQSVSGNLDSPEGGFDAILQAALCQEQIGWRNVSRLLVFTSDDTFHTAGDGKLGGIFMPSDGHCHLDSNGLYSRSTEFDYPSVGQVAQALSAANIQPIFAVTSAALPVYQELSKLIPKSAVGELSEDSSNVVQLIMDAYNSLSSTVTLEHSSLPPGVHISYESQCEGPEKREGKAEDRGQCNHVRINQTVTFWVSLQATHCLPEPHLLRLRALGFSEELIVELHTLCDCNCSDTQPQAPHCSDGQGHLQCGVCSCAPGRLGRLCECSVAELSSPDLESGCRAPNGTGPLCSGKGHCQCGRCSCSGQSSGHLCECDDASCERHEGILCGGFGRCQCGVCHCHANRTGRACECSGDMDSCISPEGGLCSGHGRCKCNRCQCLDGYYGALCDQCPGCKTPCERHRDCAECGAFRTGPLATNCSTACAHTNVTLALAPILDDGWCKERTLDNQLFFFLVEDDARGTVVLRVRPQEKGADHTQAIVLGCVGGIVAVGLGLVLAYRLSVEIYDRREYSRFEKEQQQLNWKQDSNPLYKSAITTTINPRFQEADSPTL

Row | SMILES | EC50 [2] [nM] | also measured
1 | COc1cc(C)nc(-c2ccc(C[C@H](NC(=O)c3c(F)cc(N4CCOC[C@@H]4C(F)(F)F)cc3F)C(=O)O)c3cccnc23)n1 [Example 99, (S)-2-(2,6-difluoro-4-((R)-3-(trifluoromethyl)morpholino)benzamido)-3-(8-(4-methoxy-6-methylpyrimidin-2-yl)quinolin-5-yl)propanoic acid] | – | EC50 [1]: 11.2 nM
2 | CS(=O)(=O)Nc1cc(F)c(C(=O)N[C@@H](Cc2ccc(-c3ccc(C#N)cc3Cl)c3ncccc23)C(=O)O)c(F)c1 [Example 45, (S)-3-(8-(2-chloro-4-cyanophenyl)quinolin-5-yl)-2-(2,6-difluoro-4-(methylsulfonamido)benzamido)propanoic acid] | – | EC50 [1]: 3.4 nM
3 | CC[C@@H](Nc1cc(F)c(C(=O)N[C@@H](Cc2ccc(-c3c(C)c(C)c(C)n(C)c3=O)c3ncccc23)C(=O)O)c(F)c1)C(F)(F)F [Example 115, (S)-2-(2,6-difluoro-4-(((R)-1,1,1-trifluorobutan-2-yl)amino)benzamido)-3-(8-(1,4,5,6-tetramethyl-2-oxo-1,2-dihydropyridin-3-yl)quinolin-5-yl)propanoic acid] | – | EC50 [1]: 0.6 nM
4 | CCOCc1cc(OC)c(-c2ccc(C[C@H](NC(=O)c3c(Cl)cc4cc[nH]c4c3Cl)C(=O)O)c3cccnc23)c(OC)c1 [Example 219] | 2.1 | –
5 | CC[C@@H](Nc1cc(F)c(C(=O)N[C@@H](Cc2ccc(-c3c(C)n(C)c(=O)n(C)c3=O)c3ncccc23)C(=O)O)c(F)c1)C(F)(F)F (atropisomer, axis not shown) [Example 234] | 2.3 | –
6 | Cc1nc(-c2ccc(C[C@H](NC(=O)c3c(F)cc(N4CCOC[C@@H]4C(F)(F)F)cc3F)C(=O)O)c3cccnc23)c(=O)n(C)c1C [Example 151] | 0.2 | –
7 | O=C(N[C@@H](Cc1ccc(-c2ccc(C(F)(F)F)cn2)c2ncccc12)C(=O)O)c1c(F)cc(NS(=O)(=O)c2ccc(-c3ccnc(F)c3)cc2)cc1F [Example 57, (S)-2-(2,6-difluoro-4-((4-(2-fluoropyridin-4-yl)phenyl)sulfonamido)benzamido)-3-(8-(5-(trifluoromethyl)pyridin-2-yl)quinolin-5-yl)propanoic acid] | – | EC50 [1]: 30 nM
8 | Cc1cc(C(F)(F)F)c(-c2ccc(C[C@H](NC(=O)c3c(Cl)cccc3Cl)C(=O)O)c3cccnc23)c(=O)n1C [Example 73, (S)-2-(2,6-dichlorobenzamido)-3-(8-(1,6-dimethyl-2-oxo-4-(trifluoromethyl)-1,2-dihydropyridin-3-yl)quinolin-5-yl)propanoic acid] | – | EC50 [1]: 2.5 nM
9 | Cc1cc(C(F)(F)F)c(-c2ccc(C[C@H](NC(=O)c3c(F)cc(N4C[C@H](C)OC[C@@H]4C)cc3F)C(=O)O)c3cccnc23)c(=O)n1C [Example 204] | 1.7 | –
10 | Cc1cc(N2CCOC[C@@H]2C(F)(F)F)cc(F)c1C(=O)N[C@@H](Cc1ccc(-c2cc(C(F)(F)F)c(C)n(C)c2=O)c2ncccc12)C(=O)O [Example 448] | – | EC50 [3]: 0.307 nM
11 | Cc1cc(C)n(C)c(=O)c1-c1ccc(C[C@H](NC(=O)c2c(F)cc(N3CCOC[C@@H]3C(F)(F)F)cc2F)C(=O)O)c2cccnc12 [Example 95, (S)-2-(2,6-difluoro-4-((R)-3-(trifluoromethyl)morpholino)benzamido)-3-(8-(1,4,6-trimethyl-2-oxo-1,2-dihydropyridin-3-yl)quinolin-5-yl)propanoic acid] | – | EC50 [1]: 0.3 nM
12 | O=C(N[C@@H](Cc1ccc(-c2c(Cl)cc(F)cc2OC(F)F)c2ncccc12)C(=O)O)c1c(F)cccc1F [Example 149] | 50.3 | –
13 | COc1cc(C)n(C)c(=O)c1-c1ccc(C[C@H](NC(=O)c2c(F)cc(N3CCCC[C@@H]3C(F)(F)F)cc2F)C(=O)O)c2cccnc12 [Example 190] | 1.2 | –
14 | Cn1c(=O)n(-c2ccc(C[C@H](NC(=O)c3c(F)cc(N4CCOC[C@@H]4C(F)(F)F)cc3F)C(=O)O)c3cccnc23)c(=O)c2ccncc21 [Example 474] | – | EC50 [3]: 0.112 nM
15 | N#Cc1ccc(-c2ccc(C[C@H](NC(=O)c3c(F)cc(N4CCOCC4C(F)(F)F)cc3F)C(=O)O)c3cccnc23)c(Cl)c1 (stereo partly drawn) [Example 81] | – | EC50 [1]: 6 nM
16 | Cc1cc(N2CCOC[C@@H]2C(F)(F)F)cc(F)c1C(=O)N[C@@H](Cc1ccc(-n2c(=O)c3ccncc3n(C)c2=O)c2ncccc12)C(=O)O [Example 356, (S)-2-(2-fluoro-6-methyl-4-((R)-3-(trifluoromethyl)morpholino)benzamido)-3-(8-(1-methyl-2,4-dioxo-1,4-dihydropyrido[3,4-d]pyrimidin-3(2H)-yl)quinolin-5-yl)propanoic acid] | – | EC50 [3]: 0.05 nM
17 | CS(=O)(=O)c1cc(F)ccc1-c1ccc(C[C@H](NC(=O)c2c(F)cc(NS(=O)(=O)c3ccc(-c4ccnc(F)c4)cc3)cc2F)C(=O)O)c2cccnc12 [Example 61, (S)-2-(2,6-difluoro-4-((4-(2-fluoropyridin-4-yl)phenyl)sulfonamido)benzamido)-3-(8-(4-fluoro-2-(methylsulfonyl)phenyl)quinolin-5-yl)propanoic acid] | – | EC50 [1]: 4.2 nM
18 | COCCNC(=O)c1cc(F)c(C(=O)N[C@@H](Cc2ccc(-c3ccc(C#N)cc3Cl)c3ncccc23)C(=O)O)c(F)c1 [Example 178] | 37.1 | –
19 | Cc1nc2c(s1)c(=O)n(-c1ccc(C[C@H](NC(=O)c3c(C)cc(N4CCOC[C@@H]4C(F)(F)F)cc3F)C(=O)O)c3cccnc13)c(=O)n2C [Example 410] | – | EC50 [3]: 0.054 nM
20 | Cc1cnc(-c2ccc(C[C@H](NC(=O)c3c(C)cc(N4CCOC[C@@H]4C(F)(F)F)cc3F)C(=O)O)c3cccnc23)nc1C [Example 482] | – | EC50 [3]: 1.5 nM
21 | O=C(N[C@@H](Cc1ccc(-c2c(Cl)cncc2Cl)c2ncccc12)C(=O)O)c1c(F)cccc1F [Example 20, (S)-3-(8-(3,5-dichloropyridin-4-yl)quinolin-5-yl)-2-(2,6-difluorobenzamido)propanoic acid] | – | EC50 [1]: 186 nM
22 | Cc1cc(C(F)(F)F)c(-c2ccc(C[C@H](NC(=O)c3c(F)cc(N4CC(C)OCC4C(F)(F)F)cc3F)C(=O)O)c3cccnc23)c(=O)n1C (stereo partly drawn) [Example 171] | 0.5 | –
23 | Cc1cc(C(F)(F)F)c(-c2ccc(C[C@H](NC(=O)c3c(F)cc(N4CCOC[C@@H]4C(F)(F)F)cc3F)C(=O)O)c3cccnc23)nc1C [Example 94, (S)-2-(2,6-difluoro-4-((R)-3-(trifluoromethyl)morpholino)benzamido)-3-(8-(5,6-dimethyl-3-(trifluoromethyl)pyridin-2-yl)quinolin-5-yl)propanoic acid] | – | EC50 [1]: 0.5 nM
24 | COc1cnn(C)c(=O)c1-c1ccc(C[C@H](NC(=O)c2c(F)cc(N[C@H](C)C(F)(F)F)cc2F)C(=O)O)c2cccnc12 [Example 207] | 1.7 | –
25 | Cc1cc(C(F)(F)F)c(-c2ccc(C[C@H](NC(=O)c3c(F)cc(N4CCO[C@@H](C)[C@@H]4C(F)(F)F)cc3F)C(=O)O)c3cccnc23)c(=O)n1C [Example 468] | – | EC50 [3]: 0.189 nM
26 | COc1cc(F)cc(C(F)(F)F)c1-c1ccc(C[C@H](NC(=O)c2c(F)cccc2F)C(=O)O)c2cccnc12 [Example 6, (2S)-2-(2,6-difluorobenzamido)-3-(8-(4-fluoro-2-methoxy-6-(trifluoromethyl)phenyl)quinolin-5-yl)propanoic acid] | – | EC50 [1]: 4.5 nM
27 | CC[C@@H](Nc1cc(F)c(C(=O)N[C@@H](Cc2ccc(-c3c(C(F)(F)F)cc(C4CC4)n(C)c3=O)c3ncccc23)C(=O)O)c(F)c1)C(F)(F)F [Example 163] | 0.4 | –
28 | Cc1nc(C)n(C)c(=O)c1-c1ccc(C[C@H](NC(=O)c2c(F)cc(N3CCOC[C@@H]3C(F)(F)F)cc2F)C(=O)O)c2cccnc12 [Example 440] | – | EC50 [3]: 0.25 nM

Second part, led by results:

Row | EC50 [2] [nM] | SMILES | also measured
29 | 4.5 | Cc1ccnc(-c2ccc(C[C@H](NC(=O)c3c(F)cc(N4CCOC[C@@H]4C(F)(F)F)cc3F)C(=O)O)c3cccnc23)c1C [Example 271] | –
30 | 5.5 | Cc1cc(C(F)(F)F)c(-c2ccc(C[C@H](NC(=O)c3c(F)cc(N4CCOC[C@@H]4C(F)(F)F)cc3F)C(=O)O)c3cc(N(C)C)cnc23)c(=O)n1C [Example 281] | –
31 | 25.1 | CCOCc1cc(OC)c(-c2ccc(C[C@H](NC(=O)c3c(F)cc4[nH]c(Cc5ccccc5)cc4c3F)C(=O)O)c3cccnc23)c(OC)c1 [Example 335] | –
32 | 15.8 | CC[C@@H](Nc1cc(F)c(C(=O)N[C@@H](Cc2ccc(-c3nc(C)ccc3Cl)c3ncccc23)C(=O)O)c(F)c1)C(F)(F)F [Example 321] | –
33 | 4.8 | Cc1nc(C)c(-c2ccc(C[C@H](NC(=O)c3c(F)cc(N4CCOC[C@@H]4C(F)(F)F)cc3F)C(=O)O)c3cccnc23)nc1C [Example 274] | –
34 | 0.7 | Cc1cc(C)n(C)c(=O)c1-c1ccc(C[C@H](NC(=O)c2c(F)cc(N[C@H](C3CC3)C(F)(F)F)cc2F)C(=O)O)c2cccnc12 [Example 342] | –
35 | 18.7 | N#Cc1ccc(-c2ccc(C[C@H](NC(=O)c3c(F)cc(N[C@H](c4ccccc4)C(F)F)cc3F)C(=O)O)c3cccnc23)c(Cl)c1 [Example 324] | –
36 | 11.4 | CC[C@@H](Nc1cc(F)c(C(=O)N[C@@H](Cc2ccc(-c3nccc(C)c3C)c3ncccc23)C(=O)O)c(F)c1)C(F)(F)F [Example 307] | –
37 | 3.1 | Cc1cc(C(F)(F)F)c(-c2ccc(C[C@H](NC(=O)c3c(F)cc(N4CCOC[C@H]4CC(F)F)cc3F)C(=O)O)c3cccnc23)c(=O)n1C [Example 250] | –
38 | 12.3 | CC[C@@H](Nc1cc(F)c(C(=O)N[C@@H](Cc2ccc(-c3ncc(C)cc3C(F)(F)F)c3ncccc23)C(=O)O)c(F)c1)C(F)(F)F [Example 310] | –
39 | 2.6 | CC[C@@H](Nc1cc(F)c(C(=O)N[C@@H](Cc2ccc(-c3nc(C)c(C)c(C)c3C(F)(F)F)c3ncccc23)C(=O)O)c(F)c1)C(F)(F)F [Example 236] | –
